Assay results: article PMC9229165, “In Vitro Anticancer Activity Screening of Novel Fused Thiophene Derivatives as VEGFR-2/AKT Dual Inhibitors and Apoptosis Inducers” (Pharmaceuticals, 2022)
“And” between values parts separate entries of the source, which are not always exact repeats. Identical values can stand only once. Like-named read-outs stand apart in the source and are kept apart here.

How the values were obtained:
PC-3 cells = test: MTT antiproliferative assay on PC-3; format: cell-based; conditions: mean ± S.D. (n = 3), read-out: Cytotoxicity in IC50, PC-3
Protocol: (§1) The antiproliferative activity of the thiophene compounds 3a–g, 4a–c, 6a, and 7a–d was evaluated by an in vitro MTT colorimetric assay on two oncogenic cell lines: liver (HepG2) and prostate (PC-3).
(§2) All cell lines (HepG2, PC-3, and nontumorigenic WI38) were supplied from VACSERA (Cairo, Egypt), cultured in DMEM (Invitrogen/Life Technologies, Waltham, MA, USA) at a density of 1.2–1.8 × 10,000 cells/well in a volume of 100 µL of the growth medium, and then incubated for 24 h, and an MTT assay was done as reported by.

HepG2 cells [1] = test: MTT antiproliferative assay on HepG2; format: cell-based; conditions: mean ± S.D. (n = 3), read-out: Cytotoxicity in IC50, HepG2
Protocol: as §1, §2

AKT-1 [2] = target: T1, AKT-1 (Homo sapiens, UniProt P31749); test: Phospho-AKT1 (Ser473) cell-based phosphorylation ELISA in HepG2 cells; parameters: endogenous in cells; host or cells: HepG2
Protocol: To investigate the success of the design strategy developed in this work, the effect of the promising candidates 3b and 4c was assessed on AKT-1, a crucial protein, by determining their phosphorylation inhibition rate in HepG2 cells and measuring their biochemical kinase inhibitory activity.
VEGFR-2 phosphorylation was assayed using VEGFR2 Antibody (Phospho-Tyr951) (OAEC00085, AVIVA SYSTEM BIOLOGY), while Akt-1 was assayed by Mouse/Human/Rat Phospho-AKT1 (Ser473) (Cell-Based Phosphorylation ELISA) ELISA Kit-LS-F1447 (LSBio) according to manufacturer’s instructions.

VEGFR-2 [3] = target: T2, VEGFR-2 (Homo sapiens, UniProt P35968); test: VEGFR2 (KDR) kinase assay kit; format: biochemical; parameters: purchased BPS Bioscience 40325; conditions: read-out: VEGFR-2 kinase inhibitory activity IC50
Source text: (§5) The outcomes were expressed as IC50 values (mean standard deviation) calculated from the dose–response curves and their linear regression equations.

AKT-1 [4] = target: T1, AKT-1; test: Akt kinase activity assay kit on cell lysate; format: biochemical; conditions: LY2780301 as reference
Source text: as §5

WI38 cells = test: MTT assay on normal nononcogenic cell line WI38; format: cell-based; conditions: calculated by dividing the IC50 of WI38/PC-3, SI > 2 is considered safe
Protocol: (§3) The aforementioned results illustrate that compounds 3b and 4c are the most promising cytotoxic agents on both cell lines and will be subjected to a thorough mechanistic study to understand their anticancer activity. However, before doing this, their selective toxicity and, thus, their safety were evaluated by measuring the IC50 values against the normal nononcogenic cell line (Wl38) by an MTT assay as listed in Table 1. […] Compound 3b gave SI of 6, and compound 4c gave SI = 12 showing better selectivity toward cancer cells than doxorubicin with SI = 5.
as §2

[5] = MTT assay on normal nononcogenic cell line WI38; format: cell-based; conditions: human, WI38 cells (normal nononcogenic cell line); MTT assay; noncancerous cell line; mean ± S.D. (n = 3); read-out: Cytotoxicity in IC50, WI38
Protocol: as §3, §2

caspase-3 = test: Active caspase-3 ELISA in HepG2 cells; format: cell-based, human
Protocol: Apoptosis is known to be carried out through three different pathways: intrinsic, extrinsic, and granzyme pathways. One of the controlling proteins in apoptosis is the cysteine protease named caspase with the chief executer caspase 3 [46, 47]. Accordingly, assessing the effect of 3b and 4c on the active caspase-3 level was done in HepG2 cells taking doxorubicin as the reference drug.
The colorimetric ELISA assay for active caspase-3 detection was carried out utilizing Invitrogen™ Caspase-3 (Cleaved) Human ELISA-Kit (KHO1091, CA, USA) according to the manufacturer’s procedures. ROBONIK P2000 ELISA reader was used at 450 nm, and the standard curve was obtained by plotting the mean absorbance of each standard concentration against human caspase-3 concentrations.

HepG2 cells [6] = test: Flow cytometric cell cycle analysis; format: cell-based; conditions: HepG2, 48 h, at IC50
Protocol: AKT-1 is known for its downstream activation of several proteins involved in cell proliferation and apoptosis evasion. In addition, it is reported to be involved in G1–S checkpoint transition and proliferation.
(§4) Analyzing the DNA content in the cell cycle phases by flow cytometry was conducted using FACSCalibur (Becton Dickinson, Franklin Lakes, NJ, USA) following the manufacturer’s manual. The cell cycle analysis procedures were as reported by on HepG2 cells after their treatment with the most promising derivatives for 48 h. Further assessment of the proapoptotic effect was determined by the Annexin V-FITC/PI apoptosis detection kit (Catalog # K101-25, BD Biosciences, San Diego, CA, USA).

HepG2 cells [7] = test: Annexin V-FITC/PI apoptosis detection; format: cell-based; conditions: HepG2, 48 h
Protocol: Annexin V/PI staining with flow cytometric analysis was adapted to measure early and late apoptotic cells and necrotic cells as presented in Table 3 and Figure 6.
as §4

VEGFR-2 [8] = target: T2, VEGFR-2; test: VEGFR-2 phosphorylation cell-based ELISA in HepG2 cells; conditions: compounds at their formerly determined IC50
Protocol: VEGFR-2 phosphorylation was assayed using VEGFR2 Antibody (Phospho-Tyr951) (OAEC00085, AVIVA SYSTEM BIOLOGY) [53], while Akt-1 was assayed by Mouse/Human/Rat Phospho-AKT1 (Ser473) (Cell-Based Phosphorylation ELISA) ELISA Kit-LS-F1447 (LSBio) according to manufacturer’s instructions [54].

T1 sequence (P31749 whole entry): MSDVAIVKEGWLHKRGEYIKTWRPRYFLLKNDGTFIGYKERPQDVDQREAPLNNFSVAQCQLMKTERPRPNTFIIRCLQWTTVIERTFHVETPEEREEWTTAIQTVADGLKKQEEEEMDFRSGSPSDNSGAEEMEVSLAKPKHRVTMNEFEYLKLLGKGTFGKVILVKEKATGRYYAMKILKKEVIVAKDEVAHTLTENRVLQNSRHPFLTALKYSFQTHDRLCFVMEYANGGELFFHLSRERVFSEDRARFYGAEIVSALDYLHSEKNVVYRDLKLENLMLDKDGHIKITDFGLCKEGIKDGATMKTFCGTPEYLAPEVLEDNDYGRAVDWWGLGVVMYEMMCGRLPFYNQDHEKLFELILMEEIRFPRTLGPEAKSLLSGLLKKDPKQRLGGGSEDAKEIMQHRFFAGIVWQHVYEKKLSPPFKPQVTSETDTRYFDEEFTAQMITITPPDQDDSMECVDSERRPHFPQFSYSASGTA
T2 sequence (P35968 20-1356): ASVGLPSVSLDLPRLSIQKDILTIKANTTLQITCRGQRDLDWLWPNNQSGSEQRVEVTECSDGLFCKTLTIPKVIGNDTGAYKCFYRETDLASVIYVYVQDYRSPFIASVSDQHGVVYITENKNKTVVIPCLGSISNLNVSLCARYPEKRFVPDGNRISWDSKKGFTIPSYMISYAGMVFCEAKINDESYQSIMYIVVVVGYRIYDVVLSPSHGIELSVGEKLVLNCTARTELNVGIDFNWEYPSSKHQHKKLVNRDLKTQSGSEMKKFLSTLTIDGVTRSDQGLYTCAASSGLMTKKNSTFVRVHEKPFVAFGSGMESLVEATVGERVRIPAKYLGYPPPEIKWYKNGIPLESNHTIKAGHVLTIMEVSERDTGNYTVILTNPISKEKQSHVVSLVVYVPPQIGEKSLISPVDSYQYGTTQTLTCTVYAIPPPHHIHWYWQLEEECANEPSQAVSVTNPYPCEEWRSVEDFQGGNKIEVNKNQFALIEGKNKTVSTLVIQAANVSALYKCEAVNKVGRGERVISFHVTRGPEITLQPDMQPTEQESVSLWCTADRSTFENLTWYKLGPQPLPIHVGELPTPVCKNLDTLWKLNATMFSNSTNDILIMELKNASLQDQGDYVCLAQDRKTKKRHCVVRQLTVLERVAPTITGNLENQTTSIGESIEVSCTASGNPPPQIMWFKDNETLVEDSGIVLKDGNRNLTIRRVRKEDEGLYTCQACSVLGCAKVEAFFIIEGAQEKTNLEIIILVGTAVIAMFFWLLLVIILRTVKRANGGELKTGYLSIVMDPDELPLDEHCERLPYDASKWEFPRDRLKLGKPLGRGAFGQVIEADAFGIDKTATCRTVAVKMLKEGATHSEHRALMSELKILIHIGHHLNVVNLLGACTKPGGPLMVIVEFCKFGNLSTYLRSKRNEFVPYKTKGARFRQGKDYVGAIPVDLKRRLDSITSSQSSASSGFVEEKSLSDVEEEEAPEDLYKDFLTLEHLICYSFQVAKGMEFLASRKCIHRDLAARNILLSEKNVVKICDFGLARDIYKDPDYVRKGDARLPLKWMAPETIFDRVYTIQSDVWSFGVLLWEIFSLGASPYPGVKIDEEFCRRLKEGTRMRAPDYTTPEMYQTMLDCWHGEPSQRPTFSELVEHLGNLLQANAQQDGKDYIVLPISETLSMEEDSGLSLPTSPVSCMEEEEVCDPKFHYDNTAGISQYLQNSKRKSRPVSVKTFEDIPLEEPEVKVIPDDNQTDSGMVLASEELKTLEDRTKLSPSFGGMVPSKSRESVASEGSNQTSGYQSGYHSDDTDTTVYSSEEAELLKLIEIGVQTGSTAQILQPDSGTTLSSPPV

SMILES | melting point [°C] | IC50 (PC-3 cells; Homo sapiens, PC-3, MTT assay) [µM] | IC50 (HepG2 cells [1]; Homo sapiens, HepG2, MTT assay) [µM] | further results
CN1CCc2sc3nc(-c4ccccc4)[nH]c(=O)c3c21 [3a, 5-Methyl-2-phenyl-3,5,6,7-tetrahydro-4H-pyrrolo[2′,3′:4,5]thieno[2,3-d]pyrimidin-4-one] | > 250 | 29.6 ± 1.66 | 7.96 ± 0.37 | 
CN1CCc2sc3nc(-c4ccc(Br)cc4)[nH]c(=O)c3c21 [3c, 2-(4-Bromophenyl)-5-methyl-3,5,6,7-tetrahydro-4H-pyrrolo[2′,3′:4,5]thieno[2,3-d]pyrimidin-4-one] | 113 to 114 | 10.5 ± 0.59 | 107 ± 4.94 | 
CN1CCc2sc3nc(-c4ccc(F)cc4)[nH]c(=O)c3c21 [3d, 2-(4-Fluorophenyl)-5-methyl-3,5,6,7-tetrahydro-4H-pyrrolo[2′,3′:4,5]thieno[2,3-d]pyrimidin-4-one] | 108 to 110 | 19 ± 1.06 | 13.4 ± 0.62 | 
Cc1ccc(-c2nc3sc4c(c3c(=O)[nH]2)N(C)CC4)cc1 [3e, 5-Methyl-2-(p-tolyl)-3,5,6,7-tetrahydro-4H-pyrrolo[2′,3′:4,5]thieno[2,3-d]pyrimidin-4-one] | 155 to 156 | 39.7 ± 2.22 | 22.4 ± 1.03 | 
COc1ccc(-c2nc3sc4c(c3c(=O)[nH]2)N(C)CC4)cc1 [3f, 2-(4-Methoxyphenyl)-5-methyl-3,5,6,7-tetrahydro-4H-pyrrolo[2′,3′:4,5]thieno[2,3-d]pyrimidin-4-one] | 117 to 118 | 7.47 ± 0.42 | 4.3 ± 0.2 | IC50 (PC-3 cells; MTT assay): 7.47 ± 0.42 µM; IC50 (HepG2 cells [1]; MTT assay): 4.3 ± 0.2 µM
COc1cc(-c2nc3sc4c(c3c(=O)[nH]2)N(C)CC4)cc(OC)c1OC [3g, 5-Methyl-2-(3,4,5-trimethoxyphenyl)-3,5,6,7-tetrahydro-4H-pyrrolo[2′,3′:4,5]thieno[2,3-d]pyrimidin-4-one] |  | 20.5 ± 1.15 | 3.77 ± 0.17 | 
CCOC(=O)c1c(NC(=S)NC)sc2c1N(C)CC2 [4a, Ethyl 4-methyl-2-(3-methylthioureido)-5,6-dihydro-4H-thieno[3,2-b]pyrrole-3-carboxylate] | 132 to 134 | 1.84 ± 0.1 | 41.1 ± 1.9 | 
CCNC(=S)Nc1sc2c(c1C(=O)OCC)N(C)CC2 [4b, Ethyl 2-(3-ethylthioureido)-4-methyl-5,6-dihydro-4H-thieno[3,2-b]pyrrole-3-carboxylate] | 135 to 136 | 19.3 ± 1.08 | 34.2 ± 1.58 | 
CCOC(=O)c1c(NC(=S)Nc2cc(C)ccc2Cl)sc2c1N(C)CC2 [4c, Ethyl 2-(3-(2-chloro-5-methylphenyl)thioureido)-4-methyl-5,6-dihydro-4H-thieno[3,2-b]pyrrole-3-carboxylate] |  | 3.12 ± 0.17 | 3.02 | AKT-1 phosphorylation inhibition rate (AKT-1 [2]): 71.6%; IC50 (VEGFR-2 [3]): 0.075 µM; IC50 (AKT-1 [4]): 4.6 µM; Selectivity Index (SI) (WI38 cells): 12 and 11.68; IC50 [5]: 35.3 ± 1.92 µM; Increase in active caspase-3 level over the untreated cells (caspase-3): six-fold; % Content of DNA, G0:G1 (HepG2 cells [6]): 53.28%; % Content of DNA, G2:M (HepG2 cells [6]): 1.48%; % Content of DNA, PreG1 (HepG2 cells [6]): 29.81%; % Content of DNA, S (HepG2 cells [6]): 45.24%; Increase in early apoptotic cells over untreated cells (HepG2 cells [7]): 7 fold; Increase in late apoptotic cells over untreated cells (HepG2 cells [7]): 97 fold; Apoptosis, Total (cells percentage) (HepG2 cells [7]; at IC50): 29.81%; Apoptosis, Early (cells percentage) (HepG2 cells [7]; at IC50, Q2 in Figure 6): 3.85%; Apoptosis, Late (cells percentage) (HepG2 cells [7]; at IC50, Q3 in Figure 6): 16.55%; Necrosis (cells percentage) (HepG2 cells [7]; at IC50, Q4 in Figure 6): 9.41%; VEGFR-2 phosphorylation inhibition (VEGFR-2 [8]): 70%; IC50 (HepG2 cells [1]; MTT assay): 3.02 ± 0.14 µM
CCOC(=O)c1c(/N=C(/NC)SCC(=O)Nc2ccc(Cl)cc2)sc2c1N(C)CC2 [6a, Ethyl (Z)-2-((((2-((4-chlorophenyl)amino)-2-oxoethyl)thio)(methylamino)methylene)amino)-4-methyl-5,6-dihydro-4H-thieno[3,2-b]pyrrole-3-carboxylate] | 140 to 141 | 0.5 ± 0.03 | 9.8 ± 0.45 | 
CCOC(=O)c1c(/N=C(/Nc2cc(C)ccc2Cl)SCC(=O)Nc2ccc(Cl)cc2)sc2c1N(C)CC2 [7a, Ethyl (Z)-2-((((2-chloro-5-methylphenyl)amino)((2-((4-chlorophenyl)amino)-2-oxoethyl)thio)methylene)amino)-4-methyl-5,6-dihydro-4H-thieno[3,2-b]pyrrole-3-carboxylate] | 82 to 83 | 81.1 ± 4.54 | 27.3 ± 1.26 | 
CCOC(=O)c1c(/N=C(/Nc2cc(C)ccc2Cl)SCC(=O)Nc2ccc(Br)cc2)sc2c1N(C)CC2 [7b, Ethyl (Z)-2-((((2-((4-bromophenyl)amino)-2-oxoethyl)thio)((2-chloro-5-methylphenyl)amino)methylene)amino)-4-methyl-5,6-dihydro-4H-thieno[3,2-b]pyrrole-3-carboxylate] | > 250 | 26.6 ± 1.49 | 2.48 ± 0.11 | 
CCOC(=O)c1c(/N=C(/Nc2cc(C)ccc2Cl)SCC(=O)Nc2ccc(OC)cc2)sc2c1N(C)CC2 [7c, Ethyl (Z)-2-((((2-chloro-5-methylphenyl)amino)((2-((4-methoxyphenyl)amino)-2-oxoethyl)thio)methylene)amino)-4-methyl-5,6-dihydro-4H-thieno[3,2-b]pyrrole-3-carboxylate] | 110 to 112 | 9.72 ± 0.54 | 39.6 ± 1.83 | 
CCOC(=O)c1c(/N=C(/Nc2cc(C)ccc2Cl)SCC(=O)Nc2ccc(C)cc2)sc2c1N(C)CC2 [7d, Ethyl (Z)-2-((((2-chloro-5-methylphenyl)amino)((2-oxo-2-(p-tolylamino)ethyl)thio)methylene)amino)-4-methyl-5,6-dihydro-4H-thieno[3,2-b]pyrrole-3-carboxylate] | 118 to 120 | 6.35 ± 0.36 | 8.91 ± 0.41 | 
COc1cccc2c1C(=O)c1c(O)c3c(c(O)c1C2=O)C[C@@](O)(C(=O)CO)C[C@@H]3O[C@H]1C[C@H](N)[C@H](O)[C@H](C)O1 [Doxorubicin, reference compound] |  | 2.53 ± 0.14 | 2.09 ± 0.1 | Selectivity Index (SI) (WI38 cells): 4.69; Selectivity Index (SI) (WI38 cells; listed as doxorubicin): 5; IC50 [5]: 9.84 ± 0.54 µM; Increase in active caspase-3 level over the untreated cells (caspase-3): seven-fold
CN(C)CCn1cc(-c2ccc(F)c(C(F)(F)F)c2)nc1C1CCN(c2ncnc3c2CC(=O)N3)CC1 [LY2780301, reference compound] |  |  |  | AKT-1 phosphorylation inhibition rate (AKT-1 [2]): 68.6%; IC50 (AKT-1 [4]): 4.62 µM
